# Experimental data taken from patent publication US20250328351A1, “CARBONIC ANHYDRASE INHIBITORS AND ANTIBIOTICS AGAINST MULTIDRUG RESISTANT BACTERIA” (Purdue Research Foundation, priority 2018, published 2025).
# Read-outs that look alike come from different tables or passages of the source.
# Assays:
# [1] = test system: Enterococcus fecalis Strain SF24413 NR31971; experiment: MIC, broth microdilution (CLSI); assay type: cell-based; conditions: Enterococcus, Table 7; TSB; read-out: MIC
# Protocol: (§1) The minimum inhibitory concentrations (MICs) of the compounds and control drugs were determined using the broth microdilution method, according to guidelines outlined by the Clinical and Laboratory Standards Institute (CLSI). Enterococci strains were grown aerobically overnight on tryptone soya agar plates at 37° C., afterwards a bacterial solution equivalent to 0.5 McFarland standard was prepared and diluted in tryptone soy broth (TSB) to achieve a bacterial concentration of about 5×10^5 CFU/mL and seeded in 96-well well plates. Compounds and control drugs were added in the first row of the 96-well plates and serially diluted along the plates. Plates were then incubated aerobically at 37° C. for 18-20 hours. MICs reported in Table 1 are the minimum concentration of the compounds/control drugs that could inhibit completely the visual growth of the bacteria.
# [2] = test system: Enterococcus fecalis Strain SF 28073 - NR31972; experiment: MIC, broth microdilution (CLSI); assay type: cell-based; conditions: Enterococcus, Table 7; TSB; read-out: MIC
# Protocol: as §1
# [3] = test system: Enterococcus faecium Patient #3-1 NR-31912; experiment: MIC, broth microdilution (CLSI); assay type: cell-based; conditions: Enterococcus faecium, Table 7; TSB; read-out: MIC
# Protocol: as §1
# [4] = test system: Enterococcus faecalis S613 HM-334; experiment: MIC, broth microdilution (CLSI); assay type: cell-based; conditions: Enterococcus faecalis, read-out: MIC
# Protocol: as §1
# (§2) The minimum inhibitory concentrations (MICs) of CAIs were tested against clinical isolates of vancomycin sensitive and vancomycin resistant Enterococci strains as per the guidelines provided by the Clinical and Laboratory Standards Institute (CLSI). The selected strains of Enterococci were streaked on Tryptic Soy Agar (TSA) plates and let grow for 24 hours at 37° C. Afterwards, a bacterial solution equivalent to 0.5 McFarland standard was prepared and diluted in tryptone soy broth (TSB) or brain heart infusion broth (BHIB) to achieve a bacterial concentration of about 5×10^5 CFU/mL and seeded in 96-well well plates. Compounds and control drugs were added in the first row of the 96-well plates and serially diluted along the plates. Plates were then incubated aerobically at 37° C. for 18-20 hours. MICs reported in Table 5 are the minimum concentration of the compounds/control drugs that could inhibit completely the visual growth of the bacteria.
# The minimum inhibitory concentrations (MICs) of CAIs were tested against vancomycin resistant Enterococcus faecalis—S613 HM 334 strain as per the guidelines provided by the Clinical and Laboratory Standards Institute (CLSI). The selected strain was streaked on Tryptic Soy Agar (TSA) plate and let grow for 24 hours at 37° C. […] Compounds and control drugs were added in the first row of the 96-well plates and serially diluted along the plates. Plates were then incubated aerobically at 37° C. for 18-20 hours. MICs reported in table (6) are the minimum concentration of the compounds/control drugs that could inhibit completely the visual growth of the bacteria.
# [5] = test system: Enterococcus fecalis Strain SF 24397 NR31970; experiment: MIC, broth microdilution (CLSI); assay type: cell-based; conditions: Enterococcus, Table 7; TSB; read-out: MIC
# Protocol: as §1, §2
# [6] = test system: Enterococcus faecium Patient #2-1 - NR-31909; experiment: MIC, broth microdilution (CLSI); assay type: cell-based; conditions: Enterococcus faecium, Table 7; TSB; read-out: MIC
# Protocol: as §1, §2
# [7] = test system: Enterococcus faecium E417 - HM-965; experiment: MIC, broth microdilution (CLSI); assay type: cell-based; conditions: Enterococcus faecium, E417HM965, Table 7; TSB; read-out: MIC
# Protocol: as §1, §2
# Caco-2 cells = experiment: In vitro cytotoxicity, MTS assay; conditions: concentration up to 128 μg/mL; two hours incubation
# Protocol: Method: Compounds AS005H, AS005J, AS004B, AS005K, AS005A and 005D were assayed (at concentrations of 64 and 128 μg/mL) against a human colorectal adenocarcinoma (Caco-2) cell to determine the potential toxic effect to mammalian cells in vitro. Briefly, cells were cultured in Dulbecco's Modified Eagle Medium (DMEM) supplemented with 20% fetal bovine serum (FBS), non-essential amino acids (1×), penicillin-streptomycin at 37° C. with CO2 (5%). Control cells received DMSO alone at a concentration equal to that in drug-treated cell samples. The cells were incubated with the compounds (in triplicate) in a 96-well plate at 37° C. with CO2 (5%) for two hours. The assay reagent MTS 3-(4,5-dimethylthiazol-2-yl)-5-(3-carboxymethoxyphenyl)-2-(4-sulfophenyl)-2H-tetrazolium) (Promega, Madison, WI, USA) was subsequently added and the plate was incubated for four hours. Absorbance readings (at OD490) were taken using a kinetic microplate reader (Molecular Devices, Sunnyvale, CA, USA). The quantity of viable cells after treatment with each compound was expressed as a percentage of the viability of DMSO-treated control cells (average of triplicate wells±standard deviation). The toxicity data was analyzed via a two-way ANOVA, with post hoc Dunnet's multiple comparisons test (P<0.05), utilizing GraphPad Prism 6.0 (GraphPad Software, La Jolla, CA).
# Percent viable mammalian cells (measured as average absorbance ratio (test agent relative to DMSO) for cytotoxicity analysis of AS005H, AS005J, AS004B, AS005K, AS005A and 005D compounds (tested in triplicate) at 64 and 128 μg/mL against Caco-2 cells using the MTS 3-(4,5-dimethylthiazol-2-yl)-5-(3-carboxymethoxyphenyl)-2-(4-sulfophenyl)-2H-tetrazolium) assay. Dimethyl sulfoxide (DMSO) was used as a negative control to determine a baseline measurement for the cytotoxic impact of each compound. The absorbance values represent an average of a minimum of three samples analyzed for each compound. Error bars represent standard deviation values for the absorbance values. A two-way ANOVA, with post hoc Dunnet's multiple comparisons test, determined statistical difference (denoted by the asterisk) (P<0.05) between the values obtained for each compound and DMSO (negative control, used as solvent for the compounds).
# VERO cells = experiment: In vitro cytotoxicity, MTS assay; assay type: cell-based, monkey; conditions: concentration up to 128 μg/mL; two hours incubation
# Protocol: Toxicity assessment: Compounds AS005H, AS005J, AS004B, AS005K, AS005A and 005D were assayed (at concentrations of 64 and 128 μg/mL) against a fibroblast-like monkey kidney cell line (VERO cell) to determine the potential toxic effect in vitro. Briefly, cells were cultured in Minimum Essential Medium (MEM) supplemented with 10% fetal bovine serum (FBS), 1 mM sodium pyruvate, and penicillin-streptomycin at 37° C. with CO2 (5%). Control cells received DMSO alone at a concentration equal to that in drug-treated cell samples. The cells were incubated with the compounds (in triplicate) in a 96-well plate at 37° C. with CO2 (5%) for two hours. The assay reagent MTS 3-(4,5-dimethylthiazol-2-yl)-5-(3-carboxymethoxyphenyl)-2-(4-sulfophenyl)-2H-tetrazolium) (Promega, Madison, WI, USA) was subsequently added and the plate was incubated for four hours. Absorbance readings (at OD490) were taken using a kinetic microplate reader (Molecular Devices, Sunnyvale, CA, USA). The quantity of viable cells after treatment with each compound was expressed as a percentage of the viability of DMSO-treated control cells (average of triplicate wells±standard deviation). The toxicity data was analyzed via a two-way ANOVA, with post hoc Dunnet's multiple comparisons test (P<0.05), utilizing GraphPad Prism 6.0 (GraphPad Software, La Jolla, CA).
# Percent viable mammalian cells (measured as average absorbance ratio (test agent relative to DMSO) for cytotoxicity analysis of compounds AS005H, AS005J, AS004B, AS005K, AS005A and 005D (tested in triplicates) at 64 and 128 μg/mL against VERO cells using the MTS 3-(4,5-dimethylthiazol-2-yl)-5-(3-carboxymethoxyphenyl)-2-(4-sulfophenyl)-2H-tetrazolium) assay. Dimethyl sulfoxide (DMSO) was used as a negative control to determine a baseline measurement for the cytotoxic impact of each compound. The absorbance values represent an average of a minimum of three samples analyzed for each compound. Error bars represent standard deviation values for the absorbance values.
# [8] = test system: Bifidobacterium breve JCP7499 HM 1120; experiment: MIC against human normal gut microbiota; assay type: cell-based; conditions: JCP7499HM1120, Table 3, BHIS broth, anaerobic, 48 hours, read-out: MIC
# Protocol: (§3) Three different bacterial strains were used in this experiment; Bifidobacterium (anaerobic Gram positive bacteria), Bacteroides (anaerobic Gram negative bacteria) and Lactobacillus (microaerophilic Gram positive bacteria). Bifidobacterium and Bacteroides were first grown for 48 hours at 37° C., anaerobically using brain heart infusion supplemented (BHIS) agar (Brain heart infusion agar supplemented with hemin, vitamin K and L-cysteine). Lactobacillus was cultivated on MRS agar and incubated in presence of 5% CO2 for 48 hours at 37° C. Each bacterium was suspended in phosphate buffered saline (PBS) to produce a suspension with optical density that matches 0.5 McFarland standard and diluted in brain heart infusion supplemented broth (for Bifidobacterium and Bacteroides) or in MRS broth (for Lactobacillus) to achieve bacterial concentration of approximately 5×10^5 CFU/ml. Bacteria were then seeded in 96-well plates containing serial dilutions of the compounds and incubated as mentioned previously for 48 hours.
# [9] = test system: Bacteroides fragilis CL07T00C01 HM-709; experiment: MIC against human normal gut microbiota; assay type: cell-based; conditions: Table 3, BHIS broth, anaerobic, 48 hours, read-out: MIC
# Protocol: as §3
# [10] = test system: Bacteroides dorei CL02T12C06 HM-719; experiment: MIC against human normal gut microbiota; assay type: cell-based; conditions: Phocaeicola dorei; Table 3; BHIS broth, anaerobic, 48 hours; read-out: MIC
# Protocol: as §3
# E. faecium NR 31909 = conditions: oral 20 mg/kg daily for 4 days
# Text: Saline was used as a negative control. Mice were euthanized on day 5 and organs (liver, spleen and kidneys) were aseptically removed and homogenized, and viable VRE were enumerated by serial dilution and plating.
# [11] = test system: vancomycin-resistant E. faecium; experiment: Mouse model of GI colonization by VRE; assay type: in vivo, C57BL/6 mice
# Text: Feasibility in vivo study: AZM reduces VRE load in the intestines and faeces. The promising feature, and the specific and potent antimicrobial activity of CAIs, prompted us to evaluate the in vivo efficacy of AZM in our established mouse model of GI colonization by enterococci with features that mimic the antibiotic-induced enterococcal expansion observed in humans (Mohammad, H. et al., Int J Antimicrob Agents 2018, 51, 897-904; Abdelkhalek, A, et al., PLoS One 2018, 13, e0199710). We tested AZM (two clinical doses 10 and 20 mg/kg) in female 12-week-old C57BL/6 mice (n=5 mice per group) that were sensitized with ampicillin ([…] in drinking water) for 7 days to reduce the microbiota present in the gastrointestinal tract and colonized with 10^8 CFU/mL of vancomycin-resistant E. faecium.
# We thought that the rapid absorption of AZM from the gastrointestinal tract would limit their exposure time to VRE present in the gastrointestinal tract.
# Mice were treated for 8 days with 10 mg/kg of drugs by oral gavage.
# [12] = S613HM334, Table 6, TSB in presence of 4% human serum albumin
"MIC ([4]; S613HM334, Table 7, TSB) [µg/mL]","MIC ([4]; S613HM334, Table 1, TSB) [µg/mL]",Compound,MIC [1] [µg/mL],MIC [2] [µg/mL],MIC [3] [µg/mL],MIC [5] [µg/mL],MIC [6] [µg/mL],MIC [7] [µg/mL],"toxicity to Caco-2 cells (percent viable cells, MTS) (Caco-2 cells)","toxicity to VERO cells (percent viable cells, MTS) (VERO cells)",MIC [8] [µg/mL],MIC [9] [µg/mL],MIC [10] [µg/mL],"MIC ([4]; S613HM334, Table 5, BHIB) [µg/mL]","MIC ([4]; S613HM334, Table 5, TSB) [µg/mL]","MIC [4, 12] [µg/mL]",mice protected against a lethal dose (survival) (E. faecium NR 31909) [%],"reduction of bacterial load in internal organs compared with linezolid (E. faecium NR 31909; liver, spleen, kidneys on day 5)","VRE in feces, cecal content and ileal content compared to control mice ([11]; 10 mg/kg or 20 mg/kg once a day, feces as early as 3rd day)","VRE reduction compared with linezolid ([11]; AZM 10 and 20 mg/kg, linezolid 10 mg/kg once daily for 8 days)"
1,1,"CCc1ccc(C(=O)Nc2nnc(S(N)(=O)=O)s2)cc1 [CAI0017, 4-Ethyl-N-(5-sulfamoyl-1,3,4-thiadiazol-2-yl)benzamide]",–,–,–,–,–,–,non-toxic,non-toxic,> 64,> 64,> 64,–,–,–,–,–,–,–
2,2,"CC(C)C(=O)Nc1nnc(S(N)(=O)=O)s1 [CAI0011, N-(5-Sulfamoyl-1,3,4-thiadiazol-2-yl)isobutyramide]",–,–,–,–,–,–,non-toxic,non-toxic,> 64,> 64,> 64,–,–,–,–,–,–,–
0.125,0.5,"CC(C)(C)C(=O)Nc1nnc(S(N)(=O)=O)s1 [CAI0010, N-(5-Sulfamoyl-1,3,4-thiadiazol-2-yl)pivalamide]",–,–,–,–,–,–,non-toxic,non-toxic,> 64,> 64,> 64,–,–,> 256,–,–,–,–

Compound,"MIC ([4]; S613HM334, Table 7, TSB) [µg/mL]","MIC ([4]; S613HM334, Table 1, TSB) [µg/mL]",MIC [1] [µg/mL],MIC [2] [µg/mL],MIC [3] [µg/mL],MIC [5] [µg/mL],MIC [6] [µg/mL],MIC [7] [µg/mL],"toxicity to Caco-2 cells (percent viable cells, MTS) (Caco-2 cells)","toxicity to VERO cells (percent viable cells, MTS) (VERO cells)",MIC [8] [µg/mL],MIC [9] [µg/mL],MIC [10] [µg/mL],"MIC ([4]; S613HM334, Table 5, BHIB) [µg/mL]","MIC ([4]; S613HM334, Table 5, TSB) [µg/mL]","MIC [4, 12] [µg/mL]",mice protected against a lethal dose (survival) (E. faecium NR 31909) [%],"reduction of bacterial load in internal organs compared with linezolid (E. faecium NR 31909; liver, spleen, kidneys on day 5)","VRE in feces, cecal content and ileal content compared to control mice ([11]; 10 mg/kg or 20 mg/kg once a day, feces as early as 3rd day)","VRE reduction compared with linezolid ([11]; AZM 10 and 20 mg/kg, linezolid 10 mg/kg once daily for 8 days)"
"NS(=O)(=O)c1nnc(NC(=O)C=CC2CCCCC2)s1 [CAI0019, 3-cyclohexyl-N-(5-sulfamoyl-1,3,4-thiadiazol-2-yl)propenamide]",0.007,–,0.015,0.015,0.007,0.015,0.003,0.007,–,–,–,–,–,–,–,–,–,–,–,–
CC(=O)Nc1nnc(S(N)(=O)=O)s1 [Acetazolamide],2,2,–,–,–,–,–,–,–,–,> 64,> 64,> 64,> 128,2,> 256,100,superior to linezolid,significant reduction,outperformed linezolid
